Results on 17 molecules are retold here after patent EP1203770A1 (priority 1992, dated 1994).

In the experiment the target is T1, HIV-1 protease (Human immunodeficiency virus type 1 group M subtype B, UniProt P04585).
T1 construct: The protease (or proteinase), consisting of only 99 amino acids, is among the smallest enzymes known
Briefly: In vitro HIV protease inhibitory assay (HIV Protease FITC Assay). As to conditions: for inhibition at 100 µM: HIV-1 Dose 100.000 uM; for pKi: read-out: HIV-1 FITC Ki; for inhibition at 0.41 µM: HIV-1 Dose 0.410 uM; for inhibition at 1.23 µM: HIV-1 Dose 1.230 uM; for inhibition at 3.7 µM: HIV-1 Dose 3.700 uM; for inhibition at 11 µM: HIV-1 Dose 11.000 uM; for inhibition at 33 µM: HIV-1 Dose 33.000 uM. The experiment is classed as biochemical. Here is the method: The HIV protease screening assay is based on a fluorescently labeled substrate which can be resolved from nonlabeled cleavage product using avidin-polystyrene particles, 0.7-0.9 µm. The substrate is biotinylated at the amino terminal arginine and fluorescently labeled with fluorescein isothiocynate (FITC) at the carboxyl terminal lysine. […] Substrate (20 µl of 0.2 µM), sample (10 µl of desired concentraion), and enzyme (10 µl of 0.1 µM) are added to a 96 well pandex plate. The assay is run in 0.1 M sodium acetate buffer at pH 5.5 in the presence of 1.0 M sodium chloride and 0.05% NP-40 and incubated in the dark for one hour at room temperature. Avidin coated polystyrene beads {40 µl of 0.1% (w/v)} are added and the incubation is continued in the dark for an additional half hour. The labeled cleavage product is separated from the unreacted substrate via filtration and is read on the Idexx Screen Machine. The data are analyzed by appropriate computer algorithms to ascertain percent inhibition values.

[1] abbreviates: read-out: HIV-1 Protease % Inhib.

pKi: −log10 of the molar value.

For orientation: pKi means −log10 of the Ki, conventionally taken in molar units.

Consider `Cc1noc(C)c1CCc1cc(O)c(C(c2ccccc2)C2CC2)c(=O)o1` (stereo not drawn) [Example 43, 3-(Cyclopropyl-phenyl-methyl)-6-(2-(3,5-dimethyl-isoxazol-4-yl)-ethyl)-4-hydroxy-pyran-2-one], for which the negative-log Ki (pKi) is 6.34. For the same molecule, the inhibition at 1 µM (HIV-1 Dose 1.000 uM, read-out: HIV-1 Protease % Inhib) is 44.6%. For the same molecule, the inhibition at 10 µM (HIV-1 Dose 10.000 uM, read-out: HIV-1 Protease % Inhib) came out at 89.4%. Moreover, the inhibition at 100 µM under setting [1] turned out to be 97.3%.
In the case of `CC(C)(C)c1nc(CCc2cc(O)c(C(c3ccccc3)C3CC3)c(=O)o2)no1` (stereo not drawn) [Example 44, 6-(2-(5-Tert-butyl-(1,2,4)oxadiazol-3-yl)-ethyl)-3-(cyclopropyl-phenyl-methyl)-4-hydroxy-pyran-2-one], the pKi was 5.74. In addition, under setting [1], the inhibition at 0.41 µM is below 10%, the inhibition at 1.23 µM is 24.9%, the inhibition at 3.7 µM was determined as 57.3% and the inhibition at 11 µM is 84.3%. Also, under setting [1], the inhibition at 33 µM worked out at 106% and the inhibition at 100 µM was found to be 114%.
With `CCC(CC1CCOC1)c1cc(O)c(C(c2ccccc2)C2CC2)c(=O)o1` (stereo not drawn) [Example 45, 3-(Cyclopropyl-phenyl-methyl)-4-hydroxy-6-(1-(tetrahydro-furan-3-ylmethyl)-propyl)-pyran-2-one], the negative-log Ki (pKi) is 7.28. Moreover, under setting [1], the inhibition at 0.41 µM worked out at 79.3%, the inhibition at 1.23 µM is 94.4%, the inhibition at 3.7 µM came out at 101% and the inhibition at 11 µM came out at 103%. Under setting [1], the inhibition at 33 µM came out at 114% and the inhibition at 100 µM stood at 116%.
For the molecule `O=c1oc(C(Cc2ccccc2)Cc2ccccn2)cc(O)c1C(c1ccccc1)C1CC1` (stereo not drawn) [Example 46, 3-(Cyclopropyl-phenyl-methyl)-4-hydroxy-6-(2-phenyl-1-pyridin-2-ylmethyl-ethyl)-pyran-2-one], the pKi is 6.50. In addition, under setting [1], the inhibition at 0.41 µM turned out to be 29.2%, the inhibition at 1.23 µM came to 65%, the inhibition at 3.7 µM is 91.6% and the inhibition at 11 µM came to 94.2%. In addition, under setting [1], the inhibition at 33 µM is 103% and the inhibition at 100 µM is 115%.
In the case of `O=c1oc(CCC2OCCO2)cc(O)c1C(c1ccccc1)C1CC1` (stereo not drawn) [Example 47, 3-(Cyclopropyl-phenyl-methyl)-6-(2-(1,3)dioxolan-2-yl-ethyl)-4-hydroxy-pyran-2-one], the pKi is 6.30. Moreover, under setting [1], the inhibition at 0.41 µM is below 10%, the inhibition at 1.23 µM worked out at 19.4%, the inhibition at 3.7 µM amounted to 50% and the inhibition at 11 µM came to 73.2%. Further, under setting [1], the inhibition at 33 µM stood at 91.3% and the inhibition at 100 µM came to 107%.
Take `O=c1oc(CCCCN2CCOCC2)cc(O)c1C(c1ccccc1)C1CC1` (stereo not drawn) [Example 48, 3-(Cyclopropyl-phenyl-methyl)-4-hydroxy-6-(4-morpholin-4-yl-butyl)-pyran-2-one]: under setting [1], the inhibition at 0.41 µM was below 10%, the inhibition at 1.23 µM was below 10%, the inhibition at 3.7 µM was below 10% and the inhibition at 11 µM is below 10%. Under setting [1], the inhibition at 33 µM worked out at 31.3% and the inhibition at 100 µM amounted to 61.6%.
In the case of `O=c1oc(CCc2ccccn2)cc(O)c1C(c1ccccc1)C1CC1` (stereo not drawn) [Example 49, 3-(Cyclopropyl-phenyl-methyl)-4-hydroxy-6-(2-pyridin-2-yl-ethyl)-pyran-2-one], the pKi is 6.37. In addition, under setting [1], the inhibition at 0.41 µM was below 10%, the inhibition at 1.23 µM stood at 24.6%, the inhibition at 3.7 µM worked out at 52.3% and the inhibition at 11 µM is 80%. Under setting [1], the inhibition at 33 µM came out at 93.7% and the inhibition at 100 µM was 98.3%.
In the case of `Cc1nc(CCc2cc(O)c(C(c3ccccc3)C3CC3)c(=O)o2)cs1` (stereo not drawn) [Example 50, 3-(Cyclopropyl-phenyl-methyl)-4-hydroxy-6-(2-(2-methyl-thiazol-4-yl)-ethyl)-pyran-2-one], the negative logarithm of the Ki (pKi) was 6.45. Besides, under setting [1], the inhibition at 0.41 µM is below 10%, the inhibition at 1.23 µM was found to be 22.1%, the inhibition at 3.7 µM is 55.5% and the inhibition at 11 µM amounted to 80.5%. Under setting [1], the inhibition at 33 µM was 96% and the inhibition at 100 µM was 106%.
Turning to `O=c1oc(CCc2ccc3ccccc3n2)cc(O)c1C(c1ccccc1)C1CC1` (stereo not drawn) [Example 51, 3-(Cyclopropyl-phenyl-methyl)-4-hydroxy-6-(2-quinolin-2-yl-ethyl)-pyran-2-one], under setting [1], the inhibition at 0.41 µM is below 10%, the inhibition at 1.23 µM is below 10%, the inhibition at 3.7 µM stood at 23.4% and the inhibition at 11 µM is 50.7%. In addition, under setting [1], the inhibition at 33 µM came out at 70% and the inhibition at 100 µM amounted to 83.7%.
`CCC(Cc1ccc(Cl)s1)c1cc(O)c(C(c2ccccc2)C2CC2)c(=O)o1` (stereo not drawn) [Example 52, 6-(1-(5-Chloro-thiophen-2-ylmethyl)-propyl)-3-(cyclopropyl-phenyl-methyl)-4-hydroxy-pyran-2-one]: the pKi is 7.37. For the same molecule, under setting [1], the inhibition at 0.41 µM was determined as 66.6%, the inhibition at 1.23 µM worked out at 86.2%, the inhibition at 3.7 µM was determined as 106% and the inhibition at 11 µM was determined as 112%. Also, under setting [1], the inhibition at 33 µM was found to be 116% and the inhibition at 100 µM came out at 113%.
Take `O=c1oc(CCCCl)cc(O)c1C(c1ccccc1)C1CC1` (stereo not drawn) [Example 53, 6-(3-Chloro-propyl)3-(cyclopropyl-phenyl-methyl)-4-hydroxy-pyran-2-one]: the negative logarithm of the Ki (pKi) was 6.66. Besides, under setting [1], the inhibition at 0.41 µM stood at 19.4%, the inhibition at 1.23 µM came out at 47.5%, the inhibition at 3.7 µM worked out at 86% and the inhibition at 11 µM came out at 102%. For the same molecule, under setting [1], the inhibition at 33 µM is 117% and the inhibition at 100 µM amounted to 120%.
Turning to `CCC(Cc1c(C)noc1C)c1cc(O)c(C(c2ccccc2)C2CC2)c(=O)o1` (stereo not drawn) [Example 54, 3-(Cyclopropyl-phenyl-methyl)-6(1-(3,5-dimethyl-isoxazol-4-ylmethyl)-propyl)-4-hydroxy-pyran-2-one], the pKi was 7.14. Besides, under setting [1], the inhibition at 0.41 µM came to 85%, the inhibition at 1.23 µM amounted to 95.8%, the inhibition at 3.7 µM came to 109% and the inhibition at 11 µM is 113%. For the same molecule, under setting [1], the inhibition at 33 µM stood at 117% and the inhibition at 100 µM was determined as 100%.
As for `CCC(Cc1csc(-c2ccc(Cl)cc2)n1)c1cc(O)c(C(c2ccccc2)C2CC2)c(=O)o1` (stereo not drawn) [Example 55, 6-(1-(2-(4-Chloro-phenyl)-thiazol-4-ylmethyl)-propyl)-3-(cyclopropyl-phenyl-methyl)-4-hydroxy-pyran-2-one], the pKi is 6.24. Under setting [1], the inhibition at 0.41 µM is below 10%, the inhibition at 1.23 µM came to 24.1%, the inhibition at 3.7 µM was determined as 59.6% and the inhibition at 11 µM was 92.1%. Also, under setting [1], the inhibition at 33 µM stood at 89.6% and the inhibition at 100 µM was determined as 102%.
Consider `CCC(CC1CCCO1)c1cc(O)c(C(c2ccccc2)C2CC2)c(=O)o1` (stereo not drawn) [Example 56, 3-(Cyclopropyl-phenyl-methyl)-4-hydroxy-6-(1-(tetrahydro-furan-2-ylmethyl)-propyl)-pyran-2-one], for which the pKi was 7.43. Further, under setting [1], the inhibition at 0.41 µM turned out to be 92.6%, the inhibition at 1.23 µM worked out at 97.7%, the inhibition at 3.7 µM was determined as 106% and the inhibition at 11 µM was found to be 117%. Under setting [1], the inhibition at 33 µM worked out at 119% and the inhibition at 100 µM is 109%.
For the molecule `CCC(Cc1cccs1)c1cc(O)c(C(c2ccccc2)C2CC2)c(=O)o1` (stereo not drawn) [Example 57, 3-(Cyclopropyi-phenyl-methyl)-4-hydroxy-6-(1-thiophen-2-ylmethyl-propyl)-pyran-2-one], the pKi is 7.20. Also, under setting [1], the inhibition at 0.41 µM worked out at 76.7%, the inhibition at 1.23 µM was 89.4%, the inhibition at 3.7 µM worked out at 103% and the inhibition at 11 µM stood at 108%. Further, under setting [1], the inhibition at 33 µM came to 114% and the inhibition at 100 µM is 116%.
For the molecule `CCC(CC1CCOCC1)c1cc(O)c(C(c2ccccc2)C2CC2)c(=O)o1` (stereo not drawn) [Example 58], the negative logarithm of the Ki (pKi) was 7.32. Besides, under setting [1], the inhibition at 0.41 µM was 74.5%, the inhibition at 1.23 µM was 91.1%, the inhibition at 3.7 µM stood at 107% and the inhibition at 11 µM was found to be 108%. Under setting [1], the inhibition at 33 µM came out at 115% and the inhibition at 100 µM was found to be 110%.
Consider `CCC(Cc1ccco1)c1cc(O)c(C(c2ccccc2)C2CC2)c(=O)o1` (stereo not drawn) [Example 59, 3-(Cyclopropyl-phenyl-methyl)-6-(1-furan-2-ylmethyl-propyl)4-hydroxy-pyran-2-one], for which the pKi is 7.24. Under setting [1], the inhibition at 0.41 µM is 64.2%, the inhibition at 1.23 µM turned out to be 81.2%, the inhibition at 3.7 µM was 104% and the inhibition at 11 µM was determined as 102%. Under setting [1], the inhibition at 33 µM was 101% and the inhibition at 100 µM turned out to be 105%.
